# According to US20170266266A1, “Functions of 55 Newfound Proteins and Their Medicinal Application in the Treatment and Prevention of Disease” (priority 2012, published 2017):
# Tested on: atherosclerosis in APOE KO mice
# Assay type: in vivo
substance,measurement,setting,value
human Apolipoprotein AI [APOAI],reduction and prevention of atherosclerosis,APOE KO mice,effective in the reduction and prevention of atherosclerosis
same,"pre-B HDL, western blot",after injection,increase of pre-B HDL
same,antibody of APOA1 raised in mice,"mouse, in vivo",no antibody of APOA1 raised
